The values below are quoted from earlier work in patent US6897334B2 (Board of Regents of the University of Nebraska, priority 2003, dated 2005).

For this data set the following is noted: background statement.

Turning to `CCOC(=O)CN(C)C(=N)N` [creatine ethyl ester, Creatine ethyl ester], the “solubility in an aqueous solution” value is listed as “over 200 mg/ml”.
